Assays:
[1] = system: Bacillus velezensis TCS001; experiment: Affinity screening of Bacillus velezensis TCS001 and boscalid; type: cell-based; conditions: boscalid concentration 400 mg/L in LB plates, 28° C.
Description: Preparation of Bacillus velezensis TCS001 seed culture: 1,000 mL of LB solid medium (27 mL×30 vials) and 150 mL of LB liquid medium were prepared and sterilized; a single colony of Bacillus velezensis TCS001 was inoculated into the LB liquid medium and cultured in a shaker at 25° C., 164 rpm, for 16 h.
Preparation of toxin-containing medium: technical grade boscalid was dissolved in DMF to prepare a 10% stock solution for later use, which was diluted with sterile water containing 1%. Tween-80 to 10 times the test dose; 3 mL of the agent solution was sequentially pipetted from low concentration to high concentration, added to 27 mL of LB medium, thoroughly shaken, and equally poured into two culture dishes with a diameter of 9 cm to prepare agent-containing plates at corresponding concentrations. Each treatment had 2 replicates.
Affinity screening: the shaken Bacillus velezensis TCS001 seed culture was diluted to 1×10^6 CFU/mL; 40 μL was pipetted and spread onto the agent-containing plates and the control group plates, and incubated in a dark incubator at 28° C. The growth status of TCS001 was observed.

[2] = system: strawberry gray mold-causing pathogen; experiment: Indoor toxicity determination against strawberry gray mold on strawberry fruits; type: in vivo; conditions: after 4 days
Description: Bacillus velezensis TCS001, boscalid, and a mixture of Bacillus velezensis TCS001 and boscalid were diluted to the test doses. Healthy strawberry fruits were used as the test material. The strawberry fruits were immersed in the agent solution for 20 s. Each treatment had 3 replicates, with 9 fruits per replicate, and all fruits were uniformly punctured to a size of 5 mm×5 mm. A spore suspension of strawberry gray mold-causing pathogen at 1*10^5 spores/mL was prepared. After 24 h, the strawberry fruits treated with the agent solution were surface-sprayed with the spore suspension of strawberry gray mold-causing pathogen for inoculation. The strawberry fruits were placed in a high-humidity environment (RH 90-95%) and cultured at a constant temperature of 22° C. After 4 days, the lesion diameter was measured, and the inhibition rate (%) was calculated.
Inhibition rate (%)=(Diameter of colony in blank control−Diameter of colony in treatment)/Diameter of colony in blank control×100.
[formula] • X: inhibition rate of A at a dose of P; • Y: inhibition rate of B at a dose of Q; • E0: theoretical inhibition rate of A+B at a dose of (P+Q); and • E: actual inhibition rate of each treatment.
The Colby method was used to evaluate the synergistic effect of the combination. When E−E0>5%, a synergistic effect was indicated; when E−E0<−5%, an antagonistic effect was indicated; when the value of E−E0 was within ±5%, an additive effect was indicated.

## O=C(Nc1ccccc1-c1ccc(Cl)cc1)c1cccnc1Cl [Boscalid]
[1]
  colony count of Bacillus velezensis TCS001: comparable to that of the blank control
[2]; 10 mg/L
  Lesion Diameter: 1.77 cm
[2]; 12.5 mg/L
  Lesion Diameter: 1.73 cm
[2]; 16 mg/L
  Lesion Diameter: 1.66 cm
[2]; 25 mg/L
  Lesion Diameter: 1.14 cm
[2]; 33 mg/L
  Lesion Diameter: 1.04 cm
[2]; 50 mg/L
  Lesion Diameter: 0.99 cm
[2]; 100 mg/L
  Lesion Diameter: 0.85 cm
[2]; 160 mg/L
  Lesion Diameter: 0.56 cm
[2]; 96 h, 10 mg/L, read-out: Actual Inhibition Rate E
  inhibition at 10 µg/mL: 34.4%
[2]; 96 h, 12.5 mg/L, read-out: Actual Inhibition Rate E
  inhibition at 12.5 µg/mL: 35.9%
[2]; 96 h, 16 mg/L, read-out: Actual Inhibition Rate E
  inhibition at 16 µg/mL: 38.5%
[2]; 96 h, 25 mg/L, read-out: Actual Inhibition Rate E
  inhibition at 25 µg/mL: 57.8%
[2]; 96 h, 33 mg/L, read-out: Actual Inhibition Rate E
  inhibition at 33 µg/mL: 61.5%
[2]; 96 h, 50 mg/L, read-out: Actual Inhibition Rate E
  inhibition at 50 µg/mL: 63.3%
[2]; 96 h, 100 mg/L, read-out: Actual Inhibition Rate E
  inhibition at 100 µg/mL: 68.5%
[2]; 96 h, 160 mg/L, read-out: Actual Inhibition Rate E
  inhibition at 160 µg/mL: 79.3%
